Measurements from patent US8980846B2, “Composition containing styraxlignolide A or the aglycone thereof as an active ingredient for preventing or treating asthma” (Korea Research Institute of Bioscience and Biotechnology, priority 2010, dated 2015).

How the values were obtained:
Assay type in all cases: in vivo, Balb/c female mice
[1] = test system: airway hyperresponsiveness; test: Airway hyperresponsiveness, Penh by one chamber plethysmography after methacholine inhalation; conditions: asthma-induced mice, homoegonol study
Protocol: To prepare bronchial asthma-induced experimental animals, six-week-old Balb/c female mice of mean weight about 20 g were used. After one week of adaptation, individuals which had no observed abnormality on a basic physical examination were targeted. 200 μL of phosphate buffered saline (PBS)(pH 7.4) in which 2 mg of aluminum hydroxide (A8222, Sigma, St. Louis, Mo.) and 20 μg of ovalbumin (A5503, Sigma, St. Louis, Mo.) were suspended was injected into the peritoneal cavity at two-week intervals to result in sensitization. On days 28 to 30 after the first intraperitoneal administration of ovalbumin, inhalation challenge was performed for 30 min with 1% ovalbumin using an ultrasonic atomizer. 24 hours after the last antigen administration, airway hyperresponsiveness was measured. After 24 hours, a lethal dose of pentobarbital (Entobar®, Hanlim Pharm Co., Ltd.) was administered, body weight measurement and bronchotomy were performed, and bronchoalveolar lavage was performed with a total 1.2 mL of physiological saline, and then, samples were collected. […] Eight white mice were used for each group. […]
The effect of styraxlignolide A on airway hyperresponsiveness caused by asthma occurrence was examined by measuring airway resistance with one chamber plethysmography (All medicus, Seoul, Republic of Korea) and degree of airway resistance was assessed by measuring Penh (enhanced pause) values. The baseline value was measured under a normal respiratory condition, and then, PBS was inhaled using an ultrasonic atomizer for 3 min, and Penh values were measured over 3 min. […] Louis, Mo.) which is used in general methods for diagnosis of bronchial asthma were inhaled and Penh values were measured. Penh value is shown in the following Equation 1, and the resulting Penh value was expressed as a percent increase in Penh after inhalation of each concentration of methacholine. The baseline Penh (saline challenge) was expressed as 100%.
Te: expiratory time (sec), the time from inspiration to the next inspiration
RT: relaxation time, the elapsed time between the beginning of the expiration and the moment when the remaining 30% of the tidal volume has been reached during expiration
PEF: Peak expiration flow
PIF: Peak inspiration flow
To examine the effect of homoegonol on airway hyperresponsiveness caused by asthma occurrence, Penh value was measured according to the method in <Experimental Example 2>.

ovalbumin-specific IgE = test: IgE levels in serum and bronchoalveolar lavage fluid (ELISA); conditions: asthma-induced mice, homoegonol study; for Total serum IgE level: Table 2
Protocol: (§1) To prepare bronchial asthma-induced experimental animals, six-week-old Balb/c female mice of mean weight about 20 g were used. After one week of adaptation, individuals which had no observed abnormality on a basic physical examination were targeted. 200 μL of phosphate buffered saline (PBS)(pH 7.4) in which 2 mg of aluminum hydroxide (A8222, Sigma, St. Louis, Mo.) and 20 μg of ovalbumin (A5503, Sigma, St. Louis, Mo.) were suspended was injected into the peritoneal cavity at two-week intervals to result in sensitization. On days 28 to 30 after the first intraperitoneal administration of ovalbumin, inhalation challenge was performed for 30 min with 1% ovalbumin using an ultrasonic atomizer. 24 hours after the last antigen administration, airway hyperresponsiveness was measured. After 24 hours, a lethal dose of pentobarbital (Entobar®, Hanlim Pharm Co., Ltd.) was administered, body weight measurement and bronchotomy were performed, and bronchoalveolar lavage was performed with a total 1.2 mL of physiological saline, and then, samples were collected. […] Eight white mice were used for each group. Experimental groups for homoegonol were a group (hE7.5) in which animals were orally administered with 7.5 mg/kg homoegonol 1 hour prior to ovalbumin inhalation, a group (hE15) in which animals were orally administered with 15 mg/kg homoegonol 1 hour prior to ovalbumin inhalation, and a group (hE30) in which animals were orally administered with 30 mg/kg homoegonol 1 hour prior to ovalbumin inhalation, and five white mice were used for each group.
To measure serum and bronchoalveolar lavage fluid ovalbumin-specific IgE levels caused by administration of styraxlignolide A, an immunoenzyme technique was used. 20 μg/mL of ovalbumin was dissolved in a 0.1 M NAHCO3 buffer (pH 8.3), and was placed into a 96-well flat bottom ELISA plate to be coated at 4° C. overnight. Non-specific binding was blocked with PBS containing 1% bovine serum albumin, and a serum sample was diluted 1:400 and was allowed to react at room temperature for 2 hours. Then, the plate was washed well, and anti-mouse IgE monoclonal antibody was diluted 1:300 and was allowed to react for 2 hours. Then, HRP-conjugated goat anti-rat IgG polyclonal antibody which was coupled to peroxidase was diluted 1:4000 and was allowed to react at room temperature for 1 hour, and then, was washed. For color development, 3,3′,5,5′-tetramethylbezidine substrate was allowed to react, and the spectroscopic absorbance was measured at 650 nm.
To measure IgE levels which are correlated with severity of asthma to examine the effect of homoegonol on asthma, IgE levels in serum and bronchoalveolar lavage fluid were measured according to the method in <Experimental Example 4>.

goblet cells = test: Ratio of goblet cells to bronchial epithelial cells (PAS staining); conditions: asthma-induced mice, homoegonol study
Protocol: as §1
Lungs removed from each individual were subjected to conventional formalin fixation and paraffin embedding, and permanent section slides of 4 μm thickness were prepared, and periodic acid Schiff (PAS) staining was performed to determine goblet cells. Proliferation of goblet cells was assessed by measuring the ratio of goblet cells to bronchial epithelial cells.
In accordance with the method in <Experimental Example 7-2>, the ratio of goblet cells which were determined by periodic acid-Schiff staining to bronchial epithelial cells were measured to assess proliferation of goblet cells.

[2] = test system: fibrosis in subsegmental bronchi; test: Fibrosis in subsegmental bronchi (Masson's trichrome staining); conditions: asthma-induced mice, homoegonol study; 30 mg/kg PO
Protocol: as §1

TGF-β1 = TGF-β1 in bronchoalveolar lavage fluid; conditions: asthma-induced mice, homoegonol study
Protocol: as §1
(§2) To examine the effect of homoegonol on airway remodeling, generation of TGF-β1 and IL-17 in bronchoalveolar lavage fluid was measured.

IL-17 = IL-17 in bronchoalveolar lavage fluid; conditions: asthma-induced mice, homoegonol study
Protocol: as §1, §2

## COc1ccc(-c2cc3cc(CCCO)cc(OC)c3o2)cc1OC [homoegonol]
[1]; 7.5 mg/kg PO, methacholine 0 mg/ml
  Penh values: 0.6003 ± 0.0500
[1]; 7.5 mg/kg PO, methacholine 12.5 mg/ml
  Penh values: 1.1399 ± 0.1279
[1]; 7.5 mg/kg PO, methacholine 25 mg/ml
  Penh values: 1.4067 ± 0.1279
[1]; 7.5 mg/kg PO, methacholine 50 mg/ml
  Penh values: 1.4317 ± 0.2094
[1]; 15 mg/kg PO, methacholine 0 mg/ml
  Penh values: 0.4538 ± 0.0376
[1]; 15 mg/kg PO, methacholine 12.5 mg/ml
  Penh values: 0.7989 ± 0.0736
[1]; 15 mg/kg PO, methacholine 25 mg/ml
  Penh values: 1.0243 ± 0.1881
[1]; 15 mg/kg PO, methacholine 50 mg/ml
  Penh values: 1.0918 ± 0.1914
[1]; 30 mg/kg PO, methacholine 0 mg/ml
  Penh values: 0.4736 ± 0.0420
[1]; 30 mg/kg PO, methacholine 12.5 mg/ml
  Penh values: 0.6516 ± 0.0914
[1]; 30 mg/kg PO, methacholine 25 mg/ml
  Penh values: 0.9515 ± 0.1268
[1]; 30 mg/kg PO, methacholine 50 mg/ml
  Penh values: 1.0576 ± 0.1582
ovalbumin-specific IgE; 7.5 mg/kg PO, 7.5 mg/kg
  Total IgE level in bronchoalveolar lavage fluid: 65.5957 ± 11.6656 ng/mL
ovalbumin-specific IgE; 7.5 mg/kg PO
  serum IgE levels: 19.22 ± 4.9287 µg/mL
  Total serum IgE level: 10.34 ± 6.0548 µg/mL
ovalbumin-specific IgE; 15 mg/kg PO, 15 mg/kg
  Total IgE level in bronchoalveolar lavage fluid: 48.4894 ± 4.1926 ng/mL
ovalbumin-specific IgE; 15 mg/kg PO
  serum IgE levels: 10.74 ± 3.4612 µg/mL
  Total serum IgE level: 9.94 ± 5.0656 µg/mL
ovalbumin-specific IgE; 30 mg/kg PO, 30 mg/kg
  Total IgE level in bronchoalveolar lavage fluid: 23.8085 ± 3.3515 ng/mL
ovalbumin-specific IgE; 30 mg/kg PO
  serum IgE levels: 8.14 ± 5.9682 µg/mL
  Total serum IgE level: 8.62 ± 2.4844 µg/mL
Goblet cells; 7.5 mg/kg PO, 7.5 mg/kg
  Goblet cells %/bronchial epithelial cell unit: 36.5600±11.5613%
Goblet cells; 15 mg/kg PO, 15 mg/kg
  Goblet cells %/bronchial epithelial cell unit: 32.4109±10.8037%
Goblet cells; 30 mg/kg PO, 30 mg/kg
  Goblet cells %/bronchial epithelial cell unit: 25.0956±3.4033%
[2]
  area of a fibrosis stained region per 100 μm of a basement membrane perimeter: 320.99 ± 46.2236 μm^2/100 μm of basement membrane
TGF-β1; 7.5 mg/kg PO
  TGF-β1 concentrations in bronchoalveolar lavage fluid: 216.1875 ± 13.5904 pg/mL
TGF-β1; 15 mg/kg PO
  TGF-β1 concentrations in bronchoalveolar lavage fluid: 190.4375 ± 13.0702 pg/mL
TGF-β1; 30 mg/kg PO
  TGF-β1 concentrations in bronchoalveolar lavage fluid: 186.8125 ± 6.4551 pg/mL
IL-17; 7.5 mg/kg PO
  IL-17 concentrations in bronchoalveolar lavage fluid: 70.3409 ± 14.2912 pg/mL
IL-17; 15 mg/kg PO
  IL-17 concentrations in bronchoalveolar lavage fluid: 43.5682 ± 2.9102 pg/mL
IL-17; 30 mg/kg PO
  IL-17 concentrations in bronchoalveolar lavage fluid: 27.3863 ± 5.7881 pg/mL
